In patent US6649647B1, “Trioxane derivatives” (priority 1998, dated 2003):

Key:
Type in all cases: cell-based
DNA within the cell = assay: DNA comet assay; details: cells after 3 or 6 day treatment
Description: In this technique, cells are embedded in agarose gel on a frosted slide after 3 or 6 day treatment, the cells are then lysed and submitted to electrophoresis. The DNA was stained after electrophoresis by ethidium bromide and images of the DNA “comets” were obtained by using an image analysis software package.

[1] = test system: Rat 6 subclone of the immortalized F2408 embryo cell line (R6); assay: Screening for cytotoxicity, cell count by Coulter Counter, R6 cells; details: for LD50 (Day 3) R6: day 3 after addition; for LD50 (Day 6) R6: day 6 after addition
Experimental: (§1) Compounds of the invention were screened against Rat 6 subclone of the immortalized F2408 embryo cell line, and Rat 6 (R6T24) cells transfected and transformed by a c-H-ras oncogene. The screening involved placing the R6 and R6T24 cell lines plated at 10^3 cells per well into a 12-well microtiter culture plate for 24 hours. The compounds were added at final concentrations from 0.1-100 μM, and cells were trypsized and counted by Coulter Counter at day 3 and day 6 after the addition. Untreated cells were assigned a survival value of 100%.

[2] = test system: Rat 6 (R6T24) cells transfected and transformed by a c-H-ras oncogene; assay: Screening for cytotoxicity, cell count by Coulter Counter, R6T24 cells; details: R6T24 cell line; for LD50 (Day 3) R6T24: day 3 after addition; for LD50 (Day 6) R6T24: day 6 after addition
Experimental: as §1

Compound: COc1ccc(C2OC3OC4(C)CCC5C(C)CCC(C2C)C35OO4)c(OC)c1 (centres unmarked) [Example 4, 10-(2′,4′-dimethoxyphenyl)dihydroartemisinin]
- DNA damage in the DNA comet assay (DNA within the cell): strong DNA damage
- LD50 (Day 3) R6 ([1]; Table V): 1.37 µM
- LD50 (Day 6) R6 ([1]; Table V): 0.29 µM
- LD50 (Day 3) R6 ([1]; Table VA): 1.37 µM
- LD50 (Day 6) R6 ([1]; Table VA): 0.29 µM
- LD50 (Day 3) R6T24 ([2]; Table V): 1.09 µM
- LD50 (Day 6) R6T24 ([2]; Table V): 0.13 µM
- LD50 (Day 3) R6T24 ([2]; Table VA): 1.09 µM
- LD50 (Day 6) R6T24 ([2]; Table VA): 0.13 µM

Compound: 10α and β-[(2′-naphthylmethyl)oxy]dihydroartemisinin [Example 13]
- DNA damage in the DNA comet assay (DNA within the cell): strong DNA damage
- LD50 (Day 3) R6 ([1]; Table V): 0.14 µM
- LD50 (Day 6) R6 ([1]; Table V): 0.037 µM
- LD50 (Day 3) R6T24 ([2]; Table V): 0.12 µM
- LD50 (Day 6) R6T24 ([2]; Table V): 0.02 µM

Compound: CC1CCC2C(CN3CCc4ccccc43)C(=O)OC3OC4(C)CCC1C32OO4 (centres unmarked) [Example 22, 16-(N-1′-indolinyl)artemisinin]
- DNA damage in the DNA comet assay (DNA within the cell): strong DNA damage
- LD50 (Day 3) R6 ([1]; Table V): 24.77 µM
- LD50 (Day 6) R6 ([1]; Table V): 29.24 µM
- LD50 (Day 3) R6 ([1]; Table VA): 25 µM
- LD50 (Day 6) R6 ([1]; Table VA): 29 µM
- LD50 (Day 3) R6T24 ([2]; Table V): 11.38 µM
- LD50 (Day 6) R6T24 ([2]; Table V): 7.45 µM
- LD50 (Day 3) R6T24 ([2]; Table VA): 12 µM
- LD50 (Day 6) R6T24 ([2]; Table VA): 7.5 µM
